For 18 compounds, CC50 and inhibition results are on record in patent US9540343B2 (Gilead Sciences, Inc., priority 2011, dated 2017).

Data set [1] in a line: in vitro. To be noted: human, uninfected MT-4 cells, CC50 (nM), same protocol as Test A, CellTiter-Glo. The method, boiled down: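 Cytoprotection read-out: CellTiter-Glo chemiluminescence after 5 days at 37 °C of HIV-IIIb-infected MT-4 cells (m.o.i. 0.003) with compound in 10-point 3-fold dilutions, quadruplicate, 10% FBS. Cytotoxicity (CC50) measured identically without virus.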

The test system of data set [2] is HIV-IIIb. Briefly: Test A: Antiviral assay in MT4 cells. Format: cell-based, HIV-1. To be noted: Human immunodeficiency virus 1, IIIB, MT4, 120 h, read-out: % inhibition at 2 μM, percent inhibition of virus-induced cell killing, from dose response curve at 2 uM drug; MT-4 cells infected with HIV-IIIb, 5 days, CellTiter-Glo. (In ATP-based viability assays light output follows the ATP content of the culture.)

Bounds are passed on as bounds.

What is called CC50 is the concentration at which the toxic effect on the cells reaches its halfway point. Read a low CC50 as harm at low concentration. By inhibition is commonly meant the relative decrease from the control value, in per cent. For `NC(=O)c1cc(-c2cccnc2[C@H](Cc2cc(F)cc(F)c2)NC(=O)Cn2nc(C(=O)O)c3c2C2CCC3C2)ccc1F` (stereo partly drawn) [Example 409, (S)-5-(2-(2-(3,5-difluorophenyl)-1-(2-(4,5,6,7-tetrahydro-3-carboxy-4,7-(methano)indazol-1-yl)acetamido)ethyl)pyridin-3-yl)-2-fluorobenzamide], the CC50 at 5 days in data set [1] was over 53200 nM. Also, the inhibition at 2 µM in data set [2] was 0%.
As to `O=C(Cn1nc(C(F)F)c2c1C(F)(F)C1CC21)N[C@@H](Cc1cc(F)cc(F)c1)c1ncccc1-c1cccc2cnccc12` (stereo partly drawn) [Example 410, (S)—N-(1-(3-(quinole-5-yl)-pyridin-2-yl)-2-(3,5-difluorophenyl)ethyl)-2-(3-(difluoromethyl)-5,6-dihydro-4,5-(methano)-6,6-difluoro-cyclopenta[c]pyrazol-1(4H)-yl)acetamide], the cytotoxic concentration (CC50) at 5 days in data set [1] was 13700 nM. The inhibition at 2 µM in data set [2] is 103%.
`O=C(Cn1nc(C(F)F)c2c1C(F)(F)C1CC21)N[C@@H](Cc1cc(F)cc(F)c1)c1ncccc1-c1ccc2ncccc2c1` (stereo partly drawn) [Example 411, (S)—N-(1-(3-(quinoline-6-yl)-pyridin-2-yl)-2-(3,5-difluorophenyl)ethyl)-2-(3-(difluoromethyl)-5,6-dihydro-4,5-(methano)-6,6-difluoro-cyclopenta[c]pyrazol-1(4H)-yl)acetamide] returned a CC50 at 5 days in data set [1] of 8980 nM. The inhibition at 2 µM in data set [2] was 53%.
Consider `NC(=O)c1cc(-c2cccnc2[C@H](Cc2cc(F)cc(F)c2)NC(=O)Cc2c[nH]c3ccc(F)cc23)ccc1Cl` [Example 412, (S)-2-chloro-5-(2-(2-(3,5-difluorophenyl)-1-(2-(5-fluoro-1H-indol-3-yl)acetamido)ethyl)pyridin-3-yl)benzamide], for which it took 11100 nM to reach half-maximal cytotoxicity in data set [1] (CC50 at 5 days). Further, the inhibition at 2 µM in data set [2] was 80%.
Taken in the same sequence, the figures for `CS(=O)(=O)c1ccc(-c2cccnc2[C@H](Cc2cc(F)cc(F)c2)NC(=O)Cc2c[nH]c3ccc(F)cc23)cc1` [Example 413, (S)—N-(2-(3,5-difluorophenyl)-1-(3-(4-(methylsulfonyl)phenyl)pyridin-2-yl)ethyl)-2-(5-fluoro-1H-indol-3-yl)acetamide] were 14500 nM and 61%.
Taken in the same sequence, the figures for `NC(=O)c1cc(-c2cccnc2[C@H](Cc2cc(F)cc(F)c2)NC(=O)Cn2nc(C(F)(F)F)c3c2C(=O)CCC3(F)F)ccc1F` [Example 414] were 23400 nM and 39%.
In the case of `O=C(Cn1nc(C(F)F)c2c1C(F)(F)C1CC21)N[C@@H](Cc1cc(F)cc(F)c1)c1ncccc1-c1ccc2nccnc2c1` (stereo partly drawn) [Example 415, (S)—N-(1-(3-(quinoxalin-6-yl)-pyridin-2-yl)-2-(3,5-difluorophenyl)ethyl)-2-(3-(difluoromethyl)-5,6-dihydro-4,5-(methano)-6,6-difluoro-cyclopenta[c]pyrazol-1(4H)-yl)acetamide], the cytotoxic concentration (CC50) at 5 days in data set [1] is 38000 nM. The inhibition at 2 µM in data set [2] is 39%.
In turn, `O=C(Cc1c[nH]c2ccc(F)cc12)N[C@@H](Cc1cc(F)cc(F)c1)c1ncccc1-c1ccc(-c2ccccc2)cc1` [Example 416, (S)—N-(1-(3-(biphenyl-4-yl)pyridin-2-yl)-2-(3,5-difluorophenyl)ethyl)-2-(5-fluoro-1H-indol-3-yl)acetamide] yielded a CC50 at 5 days in data set [1] of 10300 nM. Besides, the inhibition at 2 µM in data set [2] came to 0%.
In data set [1], `CC(C)(C)NC(=O)c1cc(-c2cccnc2[C@H](Cc2cc(F)cc(F)c2)NC(=O)Cc2c[nH]c3ccc(F)cc23)ccc1F` [Example 417, (S)—N-tert-butyl-5-(2-(2-(3,5-difluorophenyl)-1-(2-(5-fluoro-1H-indol-3-yl)acetamido)ethyl)pyridin-3-yl)-2-fluorobenzamide] yielded a half-maximal cytotoxic concentration (CC50) at 5 days of 12800 nM. The inhibition at 2 µM in data set [2] was 8%.
For `NC(=O)c1cccc(-c2cccnc2[C@H](Cc2cc(F)cc(F)c2)NC(=O)Cn2cnc3ccccc32)c1` [Example 418, (S)-3-(2-(1-(2-(1H-benzo[d]imidazol-1-yl)acetamido)-2-(3,5-difluorophenyl)ethyl)pyridin-3-yl)benzamide] the same measures were over 53200 nM and 19%.
For `Cc1cc(-c2cccnc2[C@H](Cc2cc(F)cc(F)c2)NC(=O)Cc2c[nH]c3ccc(F)cc23)cnc1F` [Example 419], in data set [1], the CC50 at 5 days came out at 27100 nM. Also, the inhibition at 2 µM in data set [2] worked out at 42%.
For `O=C(Cn1nc(C(F)F)c2c1C(F)(F)C1CC21)N[C@@H](Cc1cc(F)cc(F)c1)c1ncccc1-c1cccc2ncccc12` (stereo partly drawn) [Example 420, (S)—N-(1-(3-(isoquinole-5-yl)-pyridin-2-yl)-2-(3,5-difluorophenyl)ethyl)-2-(3-(difluoromethyl)-5,6-dihydro-4,5-(methano)-6,6-difluoro-cyclopenta[c]pyrazol-1(4H)-yl)acetamide] the same measures were 18700 nM and 110%.
For `O=C(Cn1nc(C(F)F)c2c1C(F)(F)C1CC21)N[C@@H](Cc1cc(F)cc(F)c1)c1ncccc1-c1ccc2[nH]ncc2c1` (stereo partly drawn) [Example 421, (S)—N-(1-(3-(indozol-5-yl)-pyridin-2-yl)-2-(3,5-difluorophenyl)ethyl)-2-(3-(difluoromethyl)-5,6-dihydro-4,5-(methano)-6,6-difluoro-cyclopenta[c]pyrazol-1(4H)-yl)acetamide], the cytotoxic concentration (CC50) at 5 days in data set [1] was found to be 10200 nM. In data set [2], the inhibition at 2 µM was determined as 70%.
With `O=C(Cc1c[nH]c2ccc(F)cc12)N[C@@H](Cc1cc(F)cc(F)c1)c1ncccc1-c1cc(Cl)cc(Cl)c1` [Example 422], the CC50 at 5 days in data set [1] was 6760 nM. The inhibition at 2 µM in data set [2] worked out at 0%.
Consider `O=C(Cn1nc(C(F)(F)F)c2c1CCCC2)N[C@@H](Cc1cc(F)cc(F)c1)c1ncccc1-c1cccc(C(=O)N2CCOCC2)c1` [Example 424, (S)—N-(2-(3,5-difluorophenyl)-1-(3-(3-(morpholine-4-carbonyl)phenyl)pyridin-2-yl)ethyl)-2-(3-(trifluoromethyl)-4,5,6,7-tetrahydro-1H-indazol-1-yl)acetamide], for which half-maximal cytotoxicity in data set [1] (CC50 at 5 days) was put at 14200 nM. Besides, the inhibition at 2 µM in data set [2] was 78%.
For the compound `CS(=O)(=O)c1ccc(-c2cccnc2[C@H](Cc2cc(F)cc(F)c2)NC(=O)Cn2nc(C(F)(F)F)c3c2CCCC3)cc1` [Example 425, (S)—N-(2-(3,5-difluorophenyl)-1-(3-(4-(methylsulfonyl)phenyl)pyridin-2-yl)ethyl)-2-(3-(trifluoromethyl)-4,5,6,7-tetrahydro-1H-indazol-1-yl)acetamide], the cytotoxic concentration (CC50) at 5 days in data set [1] was 15600 nM. The inhibition at 2 µM in data set [2] was determined as 85%.
On to `NS(=O)(=O)c1cccc(-c2cccnc2[C@H](Cc2cc(F)cc(F)c2)NC(=O)Cc2c[nH]c3ccc(F)cc23)c1` [Example 428, (S)—N-(2-(3,5-difluorophenyl)-1-(3-(3-sulfamoylphenyl)pyridin-2-yl)ethyl)-2-(5-fluoro-1H-indol-3-yl)acetamide], for which the CC50 at 5 days in data set [1] turned out to be 23000 nM. The inhibition at 2 µM in data set [2] is 94%.
In turn, `O=C(Cc1c[nH]c2ccc(F)cc12)N[C@@H](Cc1cc(F)cc(F)c1)c1ncccc1-c1cnc2[nH]ccc2c1` [Example 430, (S)—N-(1-(3-(1H-pyrrolo[2,3-b]pyridin-5-yl)pyridin-2-yl)-2-(3,5-difluorophenyl)ethyl)-2-(5-fluoro-1H-indol-3-yl)acetamide] gave a CC50 at 5 days in data set [1] of 26300 nM. Moreover, in data set [2], the inhibition at 2 µM stood at 31%.
